Series [1] addresses T1, sodium iodide symporter (hNIS) (Homo sapiens, UniProt Q92911).
T1 construct: gene SLC5A5; N-terminally HA-tagged NIS (643 residues) expressed in HeLa cells
T1 sequence (Q92911 1-643): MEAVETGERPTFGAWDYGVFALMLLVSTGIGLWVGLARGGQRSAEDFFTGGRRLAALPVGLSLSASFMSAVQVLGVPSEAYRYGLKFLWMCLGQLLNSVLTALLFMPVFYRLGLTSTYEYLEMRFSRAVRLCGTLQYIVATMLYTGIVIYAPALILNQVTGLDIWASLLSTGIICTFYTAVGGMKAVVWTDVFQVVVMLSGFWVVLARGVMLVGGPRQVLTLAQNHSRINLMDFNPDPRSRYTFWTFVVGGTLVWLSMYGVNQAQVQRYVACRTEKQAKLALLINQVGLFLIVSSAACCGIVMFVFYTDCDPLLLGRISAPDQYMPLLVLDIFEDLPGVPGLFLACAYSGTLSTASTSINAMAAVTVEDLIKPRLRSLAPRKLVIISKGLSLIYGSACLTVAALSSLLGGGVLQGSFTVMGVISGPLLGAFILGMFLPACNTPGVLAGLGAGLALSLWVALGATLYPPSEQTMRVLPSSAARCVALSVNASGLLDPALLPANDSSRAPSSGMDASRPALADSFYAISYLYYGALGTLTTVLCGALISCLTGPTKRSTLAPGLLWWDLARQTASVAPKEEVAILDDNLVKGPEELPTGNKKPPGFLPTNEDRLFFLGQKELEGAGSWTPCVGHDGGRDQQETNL
Nature of the series: […]- uptake inhibition in transduced HeLa cells. It is filed as cell-based.

The target in series [2] is T2, sodium iodide symporter (wNIS) (Balaenoptera acutorostrata, UniProt A0A384B8D1).
T2 construct: gene SLC5A5; N-terminally HA-tagged NIS (642 residues, XP_007195539.1) expressed in HeLa cells
T2 sequence (A0A384B8D1 1-642): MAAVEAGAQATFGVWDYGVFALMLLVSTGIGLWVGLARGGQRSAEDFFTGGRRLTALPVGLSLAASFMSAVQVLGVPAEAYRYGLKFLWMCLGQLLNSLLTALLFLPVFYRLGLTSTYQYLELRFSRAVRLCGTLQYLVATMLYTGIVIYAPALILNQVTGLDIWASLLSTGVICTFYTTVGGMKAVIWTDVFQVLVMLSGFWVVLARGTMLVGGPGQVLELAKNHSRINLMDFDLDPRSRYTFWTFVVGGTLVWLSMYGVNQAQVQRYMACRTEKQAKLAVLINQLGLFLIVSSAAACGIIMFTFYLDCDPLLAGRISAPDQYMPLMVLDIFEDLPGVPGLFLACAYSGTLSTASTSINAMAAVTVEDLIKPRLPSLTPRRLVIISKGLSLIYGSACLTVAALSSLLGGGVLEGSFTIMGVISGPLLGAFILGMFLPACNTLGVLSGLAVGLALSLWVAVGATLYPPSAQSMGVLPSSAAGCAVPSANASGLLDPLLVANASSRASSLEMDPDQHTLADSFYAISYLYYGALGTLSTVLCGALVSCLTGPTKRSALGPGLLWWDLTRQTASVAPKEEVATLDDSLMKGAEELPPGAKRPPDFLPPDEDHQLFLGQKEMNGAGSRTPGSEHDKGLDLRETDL
In words: […]- uptake inhibition in transduced HeLa cells. It is filed as cell-based.

Series [3] concerns the target T3, sodium iodide symporter (zNIS) (Danio rerio, UniProt A0AC58G7K6).
T3 construct: gene slc5a5; N-terminally HA-tagged NIS (601 residues, NP_001082860.1) expressed in HeLa cells
T3 sequence (A0AC58G7K6 1-601): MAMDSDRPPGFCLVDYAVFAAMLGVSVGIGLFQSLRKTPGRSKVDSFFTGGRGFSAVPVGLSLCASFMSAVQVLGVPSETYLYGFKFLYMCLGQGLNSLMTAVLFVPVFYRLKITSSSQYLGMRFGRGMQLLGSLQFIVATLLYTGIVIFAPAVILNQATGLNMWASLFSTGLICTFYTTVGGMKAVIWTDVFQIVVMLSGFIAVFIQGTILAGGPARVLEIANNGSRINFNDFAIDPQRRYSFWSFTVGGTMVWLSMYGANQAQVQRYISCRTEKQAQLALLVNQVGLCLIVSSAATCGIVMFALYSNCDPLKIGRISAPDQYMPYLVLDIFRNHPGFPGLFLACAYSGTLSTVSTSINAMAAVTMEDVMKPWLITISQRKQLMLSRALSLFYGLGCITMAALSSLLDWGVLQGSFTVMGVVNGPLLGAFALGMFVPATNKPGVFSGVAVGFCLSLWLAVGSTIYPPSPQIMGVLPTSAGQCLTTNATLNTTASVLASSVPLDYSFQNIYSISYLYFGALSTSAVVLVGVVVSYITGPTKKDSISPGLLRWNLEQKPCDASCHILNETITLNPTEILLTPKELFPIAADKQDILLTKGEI
Nature of the series: […]- uptake inhibition in transduced HeLa cells. It is filed as cell-based.

Substrate in series [4]: I
In words: iodide uptake kinetics (Km) in transduced HeLa cells. It counts as cell-based, Homo sapiens. To be noted: Na+.

Substrate in series [5]: I
The series is described as above. It counts as cell-based, Balaenoptera acutorostrata. To be noted: Na+.

Substrate in series [6]: I
Described as above. To be noted: Na+. It is filed as cell-based, Danio rerio. The text has this: iodide uptake kinetics (Km) in transduced HeLa cells on sodium iodide symporter (zNIS) | zNIS binds to iodide with the greatest affinity of the proteins examined in this study

`[O-][Cl+3]([O-])([O-])O` [perchlorate]: the IC50 in series [1] was 1570 nM; in series [2], 4600 nM; in series [3], 81 nM.

B1: sodium iodide symporter (hNIS) (Homo sapiens) (protein)
chain: T1 sequence (Q92911 1-643)
notes: N-terminally HA-tagged NIS (643 residues) expressed in HeLa cells
B1: the Km in series [4] came out at 12.01 µM.

B2: sodium iodide symporter (wNIS) (Balaenoptera acutorostrata) (protein)
chain: T2 sequence (A0A384B8D1 1-642)
notes: N-terminally HA-tagged NIS (642 residues, XP_007195539.1) expressed in HeLa cells
Turning to B2, the Michaelis constant (Km) in series [5] is 30.04 µM.

B3: sodium iodide symporter (zNIS) (Danio rerio) (protein)
chain: T3 sequence (A0AC58G7K6 1-601)
notes: N-terminally HA-tagged NIS (601 residues, NP_001082860.1) expressed in HeLa cells
For the molecule B3, the Km in series [6] was found to be 3.688 µM.

(Values after publication PMC7034854, “Inter-species variation in monovalent anion substrate selectivity and inhibitor sensitivity in the sodium iodide symporter (NIS)” (PLoS ONE, 2020).)
